The source made the active and inactive calls. No cut-off for these calls is given here.
How the values were obtained:
HGC-27 [1] = test: Induction of apoptosis in human HGC-27 cells assessed as increase in cleaved Caspase-3 expression at 0.25 to 2.0 nmol/L incubated for 48 hrs by Western blotting analysis; type: functional, cell-based; details: dose 0.25-2 nmol/L
Tubulin (Homo sapiens) [2] = molecular target: T1, Tubulin (Homo sapiens) (UniProt P68371+Q9H4B7+P0DPH7+P68366+Q13509+Q71U36+P04350+Q3ZCM7+P07437+P68363+Q9BQE3+Q6PEY2+Q13885+Q9BVA1+Q9BUF5); test: Disruption of microtubule network in human HGC-27 cells assessed as irregular cellular morphology at 0.25 to 2.0 nmol/L incubated for 24 hrs by DAPI staining based fluorescence microscopic analysis; type: cell-based; details: dose 0.25-2 nmol/L
MGC-803 [3] = test: Induction of apoptosis in human MGC-803 cells assessed as increase in cleaved PARP expression at 0.25 to 2.0 nmol/L incubated for 48 hrs by Western blotting analysis; type: functional, cell-based; details: dose 0.25-2 nmol/L
MGC-803 [4] = test: Antitumor activity against human MGC-803 cells xenografted in female BALB/c-nu nude mouse assessed as increase in cleaved PARP level in tumor at 5 mg/kg, po administrated […] for 11 times and measured after 21 days by immunohistochemical analysis; type: functional, organism-based; details: time 21.0 day
MGC-803 [5] = test: Induction of apoptosis in human MGC-803 cells assessed as increase in dead to live cells ratio at 0.25 to 2.0 nmol/L incubated for 48 hrs by Calcein-AM/PI staining based analysis; type: functional, cell-based; details: dose 0.25-2 nmol/L
MGC-803 [6] = test: Antitumor activity against human MGC-803 cells xenografted in female BALB/c-nu nude mouse assessed as reduction in Ki67 expression in tumor at 5 mg/kg, po administrated […] for 11 times and measured after 21 days by immunohistochemical analysis; type: functional, organism-based; details: time 21.0 day
HUVEC [7] = test: Anti-angiogenesis activity in HUVEC cells assessed as reduction in cell viability by measuring survival rate at 2 nmol/L incubated for 12 hrs by MTT assay relative to control; type: functional; details: Homo sapiens, read-out: Survival
HUVEC [8] = test: Anti-angiogenesis activity in HUVEC cells assessed as effect on cell vitality at <= 1 nmol/L measured within 24 hrs; type: functional, cell-based; details: Homo sapiens
MGC-803 [9] = test: Inhibition of colony formation in human MGC-803 cells at 0.5 nmol/L incubated for 7 days by crystal violet staining based colony formation assay relative to control; type: functional; details: MGC-803, 168 h, time 7 day
[10] = molecular target: T2, Tubulin beta (Homo sapiens) (UniProt P68371+Q9H4B7+Q13509+P04350+Q3ZCM7+P07437+Q13885+Q9BVA1+Q9BUF5+A6NNZ2); test: Competitive binding affinity to beta-tubulin colchicine binding site in human HGC-27 cells assessed as inhibition of EBI-beta-tubulin adduct band formation at 1 umol/L preincubated for 2 hrs followed by EBI addition and measured after 2 hrs by Western blotting analysis; type: cell-based; details: dose 1.0 µmol/L, time 4.0 hrs
HGC-27 [11] = test: Induction of cell cycle arrest in human HGC-27 cells assessed as downregulation of Wee1 level measured after 48 hrs by Western blot analysis; type: functional, cell-based; details: dose 0.25-2 nmol/L
Tubulin (Homo sapiens) [12] = molecular target: T1, Tubulin (Homo sapiens); test: Disruption of microtubule network in human MGC-803 cells assessed as reduction in filamentous microtubule structure formation at 0.25 to 2.0 nmol/L incubated for 24 hrs by DAPI staining based fluorescence microscopic analysis; type: cell-based; details: dose 0.25-2 nmol/L
MGC-803 [13] = test: Induction of apoptosis in human MGC-803 cells assessed as cell contraction at 0.25 to 2.0 nmol/L incubated for 48 hrs by bright field microscopic analysis; type: functional, cell-based; details: dose 0.25-2 nmol/L
[14] = Toxicity in female BALB/c-nu nude mouse xenografted with human MGC-803 cells assessed as change in lung morphology at 5 mg/kg, po administrated every other day for 11 times and measured after 21 days by hematoxylin and eosin staining based analysis; type: organism-based; details: in vivo, 504 h, time 21 day
MGC-803 [15] = test: Induction of cell cycle arrest at G2 phase in human MGC-803 cells assessed as increase in p-Histone H3 level at 0.25 to 2.0 nmol/L measured after 48 hrs by Western blot analysis; type: functional, cell-based; details: dose 0.25-2 nmol/L
HUVEC [16] = test: Anti-vascular activity in HUVEC cells assessed as reduction in capillary-like tubules with multi-center junctions incubated for 5 hrs by Matrigel based inverted microscopic analysis; type: functional, cell-based; details: Homo sapiens, dose 0.5-2 nmol/L
NCI-N87 = test: Antiproliferative activity against human NCI-N87 cells assessed as inhibition of cell proliferation incubated for 48 hrs by MTT assay; type: functional, cell-based; details: NCI-N87, 48 h
Huh-7 = test: Antiproliferative activity against human Huh-7 cells assessed as inhibition of cell proliferation incubated for 48 hrs by MTT assay; type: functional, cell-based; details: Huh-7, 48 h
MGC-803 [17] = test: Induction of apoptosis in human MGC-803 cells assessed as late apoptotic cells at 0.5 nmol/L incubated for 48 hrs by Annexin V-FITC/propidium iodide staining based flow cytometry analysis (reference value: 2.22 %); type: functional
HGC-27 [18] = test: Induction of apoptosis in human HGC-27 cells assessed as downregulation of Bcl-2 expression incubated for 48 hrs by Western blotting analysis; type: functional, cell-based; details: dose 0.25-2 nmol/L
HGC-27 [19] = test: Induction of apoptosis in human HGC-27 cells assessed as late apoptotic cells at 0.5 nmol/L incubated for 48 hrs by Annexin V-FITC/propidium iodide staining based flow cytometry analysis (reference value: 3.70 %); type: functional
HUVEC [20] = test: Anti-vascular activity in HUVEC cells assessed as reduction in width of tubular network incubated for 5 hrs by Matrigel based inverted microscopic analysis; type: functional, cell-based; details: Homo sapiens, dose 0.5-2 nmol/L
MGC-803 [21] = test: Induction of cell cycle arrest in human MGC-803 cells assessed as downregulation of Cdc25c level measured after 48 hrs by Western blot analysis; type: functional, cell-based; details: dose 0.25-2 nmol/L
[22] = Toxicity in female BALB/c-nu nude mouse xenografted with human MGC-803 cells assessed as change in heart morphology at 5 mg/kg, po administrated every other day for 11 times and measured after 21 days by hematoxylin and eosin staining based analysis; type: organism-based; details: in vivo, 504 h, time 21 day
HUVEC [23] = test: Anti-angiogenesis activity in HUVEC cells assessed as reduction in cell viability incubated from 12 to 48 hrs by MTT assay; type: functional, cell-based; details: Homo sapiens, dose < 2.0 nmol/L, time 12-48 hrs
[24] = Toxicity in female BALB/c-nu nude mouse xenografted with human MGC-803 cells assessed as body weight loss at 5 mg/kg, po administrated every other day for 11 times and measured after 21 days; type: organism-based; details: in vivo, 504 h, time 21 day
MGC-803 [25] = test: Induction of apoptosis in human MGC-803 cells assessed as increase in nuclei brightness at 0.25 to 2.0 nmol/L incubated for 48 hrs by DAPI staining based analysis; type: functional, cell-based; details: dose 0.25-2 nmol/L
MGC-803 [26] = test: Antiproliferative activity against human MGC-803 cells by MTT assay; type: functional, cell-based; details: dose 0.25-2 nmol/L
MGC-803 [27] = test: Antiproliferative activity against human MGC-803 cells assessed as survival rate at 2 nmol/L measured after 6 hrs by MTT assay relative to control; type: functional; details: read-out: Survival
[28] = molecular target: T2, Tubulin beta (Homo sapiens); test: Competitive binding affinity to beta-tubulin colchicine binding site in human HGC-27 cells assessed as reduction in EBI-beat tubulin adduct to beta-tubulin ratio preincubated for 2 hrs followed by EBI addition and measured after 2 hrs by Western blotting analysis; type: cell-based; details: dose 0.1-1 µmol/L, time 4.0 hrs
MDA-MB-231 = test: Antiproliferative activity against human MDA-MB-231 cells assessed as inhibition of cell proliferation incubated for 48 hrs by MTT assay; type: functional, cell-based; details: MDA-MB-231, 48 h
HGC-27 [29] = test: Induction of apoptosis in human HGC-27 cells assessed as increase in cleaved Caspase-7 expression at 0.25 to 2.0 nmol/L incubated for 48 hrs by Western blotting analysis; type: functional, cell-based; details: dose 0.25-2 nmol/L

**Q.** For `CN(c1ccc2c(ccn2C)c1)c1nc(N2CCCC2)nc2sccc12`, which Activity (HGC-27 [1]) is on record?
**A.** Its Activity is “Active”.

**Q.** What about the Activity (Tubulin (Homo sapiens) [2]) of the same molecule?
**A.** Its Activity is “Active”.

**Q.** What about the Activity (MGC-803 [3]) of the same molecule?
**A.** The Activity was “Active”.

**Q.** What about the Activity (MGC-803 [4]) of the same molecule?
**A.** The Activity was “Active”.

**Q.** And the Activity (MGC-803 [5])?
**A.** The Activity was “Active”.

**Q.** What about the Activity (MGC-803 [6]) of the same molecule?
**A.** Its Activity is “Active”.

**Q.** And the viability at 0.002 µM (HUVEC [7])?
**A.** The viability at 0.002 µM was 75.6%.

**Q.** What about the Activity (HUVEC [8]) of the same molecule?
**A.** The Activity was “Active; Minimal Impact Observed”.

**Q.** What about the inhibition at 0.0005 µM (MGC-803 [9]) of the same molecule?
**A.** Its inhibition at 0.0005 µM is > 90%.

**Q.** And the Activity [10]?
**A.** The Activity was “Active; Stronger Affinity Observed”.

**Q.** And the Activity (HGC-27 [11])?
**A.** The Activity was “Dose-dependent-effect”.

**Q.** And the Activity (Tubulin (Homo sapiens) [12])?
**A.** Its Activity is “Active”.

**Q.** What about the Activity (MGC-803 [13]) of the same molecule?
**A.** The Activity was “Active”.

**Q.** And the Activity [14]?
**A.** Its Activity is “Non-toxic”.

**Q.** And the Activity (MGC-803 [15])?
**A.** The Activity was “Active”.

**Q.** What about the Activity (HUVEC [16]) of the same molecule?
**A.** Its Activity is “Dose-dependent-effect”.

**Q.** And the IC50 (NCI-N87)?
**A.** Its IC50 is 2.14 nM.

**Q.** What about the IC50 (Huh-7) of the same molecule?
**A.** Its IC50 is 2.09 nM.

**Q.** And the Activity (MGC-803 [17])?
**A.** Its Activity is 2.84%.

**Q.** And the Activity (HGC-27 [18])?
**A.** Its Activity is “Dose-dependent-effect”.

**Q.** What about the Activity (HGC-27 [19]) of the same molecule?
**A.** Its Activity is 3.5%.

**Q.** And the Activity (HUVEC [20])?
**A.** Its Activity is “Dose-dependent-effect”.

**Q.** What about the Activity (MGC-803 [21]) of the same molecule?
**A.** Its Activity is “Dose-dependent-effect”.

**Q.** And the Activity [22]?
**A.** Its Activity is “Non-toxic”.

**Q.** And the Activity (HUVEC [23])?
**A.** Its Activity is “Dose-dependent-effect”.

**Q.** And the Activity [24]?
**A.** Its Activity is “Non-toxic”.

**Q.** And the Activity (MGC-803 [25])?
**A.** Its Activity is “Active”.

**Q.** And the Activity (MGC-803 [26])?
**A.** The Activity was “Dose-dependent-effect”.

**Q.** What about the viability at 0.002 µM (MGC-803 [27]) of the same molecule?
**A.** Its viability at 0.002 µM is 86%.

**Q.** And the Activity [28]?
**A.** Its Activity is “Dose-dependent-effect”.

**Q.** What about the IC50 (MDA-MB-231) of the same molecule?
**A.** Its IC50 is 2.58 nM.

**Q.** What about the Activity (HGC-27 [29]) of the same molecule?
**A.** Its Activity is “Active”.

Source: ChEMBL document CHEMBL6103573, “Discovery of novel thienopyridine indole derivatives as inhibitors of tubulin polymerization targeting the colchicine-binding site with potent anticancer activities” (Eur J Med Chem, 2025)
